Data published in patent publication US11919856B2, “Compounds” (UCL BUSINESS LTD, priority 2018, dated 2024).
pKd: −log10 of the molar value.

Assays:
[1] = system: CHO-TET-ON-Z-A1AT cells; assay: Cell viability assay with ER stressor tunicamycin; type: cell-based; conditions: 10 μM, versus cells expressing wild-type M α1-antitrypsin
Experimental: To investigate the ability of Compound 1 to protect cells from sensitisation to a secondary toxin, Z α1-antitrypsin expression was induced in CHO-TET-ON-Z-A1AT cells in the presence or absence of 10 μM Compound 1 before exposure to varying concentrations of the ER stressor tunicamycin. In a cell viability assay, cells expressing wild-type M α1-antitrypsin were less sensitive to tunicamycin than cells expressing Z α1-antitrypsin.

[2] = target: T1, antichymotrypsin (Homo sapiens, UniProt P01011); assay: Serpin inhibitory activity, antichymotrypsin; type: biochemical; conditions: incubation with 50 μM
T1 sequence (P01011 24-423): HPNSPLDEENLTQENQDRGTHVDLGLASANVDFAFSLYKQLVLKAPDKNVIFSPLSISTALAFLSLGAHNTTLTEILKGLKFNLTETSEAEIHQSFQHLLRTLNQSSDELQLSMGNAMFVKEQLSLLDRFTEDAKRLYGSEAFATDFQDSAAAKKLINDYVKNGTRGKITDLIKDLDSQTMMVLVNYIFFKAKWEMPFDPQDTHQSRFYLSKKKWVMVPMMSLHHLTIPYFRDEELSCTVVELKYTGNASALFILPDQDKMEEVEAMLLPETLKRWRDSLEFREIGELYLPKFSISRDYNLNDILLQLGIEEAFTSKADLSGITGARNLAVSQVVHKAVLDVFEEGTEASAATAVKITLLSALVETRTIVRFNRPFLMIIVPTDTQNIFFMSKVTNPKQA
From the text: (§1) In order to investigate suitability of Compound 1 for progression into in vivo studies and the potential for taking forward as a clinical candidate for testing in human, Compound 1 was profiled against a panel of in vitro assays for off-targets considered predictive of potential safety liabilities. […] The measured potency of these marginal activities were at least 10-fold below the cellular activity of Compound 1 at blocking Z α1-antitrypsin polymerisation (pEC50 6.3). Loss of inhibitory activity represents a means by which possible off-target engagement with other serpins can be evaluated. However in contrast to α1-antitrypsin upon incubation with 50 μM Compound 1 the inhibitory activity of the homologues antithrombin, neuroserpin and antichymotrypsin was not affected.

[3] = target: T2, Z α1-antitrypsin (Homo sapiens, UniProt P01009, E366K/V237A); assay: Biochemical competition binding assay (TR-FRET), Z α1-antitrypsin; parameters: a random insertion of the human Z α1-antitrypsin gene; from tissue; host or cells: liver and plasma of Z α1-antitrypsin transgenic mice (human Z transgene); conditions: competition binding with fluorescently labelled derivative; read-out: affinity (KD) to Z α1-antitrypsin
Experimental: Alpha1-antitrypsin was purified from the plasma of ZZ and MM α1-antitrypsin homozygotes as described in Lomas et al., Biochemistry. 1993; 32:500-8. Recombinant Cys232Ser α1-antitrypsin was expressed and purified as detailed in Irving et al. Methods Enzymol. 2011; 501:421-66 and Haq et al. Biosci Rep. 2013; 33(3):e00046.
A fluorescent derivative of compound 1 was prepared by derivatizing compound 1 at its ring nitrogen atom with an Alexa Fluor 488 label via a short organic linker group.
A serial dilution of test compounds in DMSO was diluted 25-fold with assay buffer, and 2.5 μl of this intermediate dilution transferred to a black, low-volume 384-well microtitre plate (Greiner BioOne; product no. 784076). […]
Plates were sealed and incubated overnight at room temperature, or for 3 days at 4° C. then 6 hours at room temperature. […] The TR-FRET signal was read on an Envision plate reader, by excitation of Terbium at 337 nm and detection of emission at 520 nm and 495 nm.
Dissociation constants (KD) for the affinity of compounds to Z-a1AT or M-a1AT protein were derived from the pIC50 values according to the Cheng-Prusoff equation, taking into account the concentration of fluorescent ligand used in relation to its affinity as determined in independent Fluorescence Polarisation and TR-FRET experiments: KD(compound)=10^−pIC50(compound)/([…]. Compound Association Experiments

[4] = target: T2, Z α1-antitrypsin; assay: Stoichiometry of inhibition against chymotrypsin, Z α1-antitrypsin; type: biochemical; conditions: Z α1-antitrypsin pre-incubated with compound
Experimental: Mutations that interfere with the opening of […] or that perturb its interaction with the N-terminal portion of the reactive centre loop alter the ability of serpins to inhibit target proteases. The stoichiometry of inhibition (SI) was determined for M and Z α1-antitrypsin in discontinuous experiments against a model target protease, chymotrypsin. The pre-incubation of both variants with Compound 1 led to a >98% loss of protease inhibitory activity. […] To investigate whether this activity was consistent with action as a chemical chaperone, M and Z α1-antitrypsin were unfolded in vitro into 6 M guanidine hydrochloride, and rapidly refolded by snap dilution into denaturant-free buffer in the presence or absence of Compound 1.

[5] = Total and free drug in blood and liver of Z α1-antitrypsin transgenic mice; type: in vivo, mouse; conditions: for systemic free drug levels relative to in vitro secretion potency: duration of the dosing period
Experimental: To explore the PK-PD relationship of Compound 1, Z α1-antitrypsin transgenic animals were dosed with 100, 30 or 10 mg/kg Compound 1 three times a day and on day 6 blood and liver were harvested at 3 hr (˜Cmax) and 8 hr (Cmin) after the dose for the measurement of total and free drug in both tissues. Blood was also harvested for the measurement of monomeric Z α1-antitrypsin in plasma. Total concentrations of Compound 1 were determined by specific LC-MS/MS assay and the free unbound drug in both tissues was determined using equilibrium dialysis and used to derive unbound concentrations.

[6] = target: antithrombin (Homo sapiens, UniProt P01008); assay: Serpin inhibitory activity, antithrombin; type: biochemical; conditions: incubation with 50 μM
From the text: as §1

T2 sequence (P01009 25-418 V237A/E366K): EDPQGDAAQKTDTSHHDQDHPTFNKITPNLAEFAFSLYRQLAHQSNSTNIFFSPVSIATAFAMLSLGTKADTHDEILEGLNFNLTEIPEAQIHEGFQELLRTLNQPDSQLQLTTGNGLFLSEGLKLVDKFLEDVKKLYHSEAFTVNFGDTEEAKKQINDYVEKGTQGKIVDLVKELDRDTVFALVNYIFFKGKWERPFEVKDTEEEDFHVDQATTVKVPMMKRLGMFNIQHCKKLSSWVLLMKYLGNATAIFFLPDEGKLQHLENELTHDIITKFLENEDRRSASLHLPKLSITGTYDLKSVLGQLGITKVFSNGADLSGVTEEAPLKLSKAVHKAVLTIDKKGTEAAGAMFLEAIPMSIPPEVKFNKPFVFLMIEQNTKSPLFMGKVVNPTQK
Chain of antithrombin (P01008 33-464): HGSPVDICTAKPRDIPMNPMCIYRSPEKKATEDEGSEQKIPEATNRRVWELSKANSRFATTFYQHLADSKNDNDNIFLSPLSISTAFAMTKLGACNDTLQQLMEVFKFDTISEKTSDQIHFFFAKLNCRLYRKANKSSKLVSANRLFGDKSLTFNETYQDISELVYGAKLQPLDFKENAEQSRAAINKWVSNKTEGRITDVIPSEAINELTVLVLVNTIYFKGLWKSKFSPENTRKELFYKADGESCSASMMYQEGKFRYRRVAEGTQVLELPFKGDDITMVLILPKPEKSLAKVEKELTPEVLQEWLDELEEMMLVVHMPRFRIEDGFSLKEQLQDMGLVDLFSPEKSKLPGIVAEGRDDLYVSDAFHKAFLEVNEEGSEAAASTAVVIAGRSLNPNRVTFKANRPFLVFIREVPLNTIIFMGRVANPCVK

Structure (SMILES): CCC[C@@H](NC(=O)c1cccc2c1CC(=O)N2)[C@@H](O)c1cccc(F)c1C [Compound 1, N-[(1S,2R)-1-(3-fluoro-2-methylphenyl)-1-hydroxypentan-2-yl]-2-oxo-2,3-dihydro-1H-indole-4-carboxamide]
- sensitivity to tunicamycin in cell viability assay [1]: restored sensitivity
- inhibitory activity of antichymotrypsin [2]: not affected
- pKd [3]: 8.82
- loss of protease inhibitory activity [4]: > 98%
- systemic free drug levels relative to in vitro secretion potency ([5]; 10 mg/kg): EC10-EC20
- free drug levels in blood ([5]; 30 mg/kg and 10 mg/kg three times a day, large part of the dosing period): significantly below the cellular EC50 concentrations
- systemic free drug levels relative to in vitro secretion potency ([5]; 30 mg/kg): EC20-EC30
- concentration at 8 h ([5]; Z α1-antitrypsin transgenic, mouse, blood, oral, 100 mg/kg three times a day, day 6, majority of the dosing period, read-out: Cmin levels of the free drug concentration in blood): ≥ 300 nM
- free and total drug concentrations in the liver ([5]; transgenic mice, day 6): equivalent to those in blood
- inhibitory activity of antithrombin [6]: not affected
